Assay results reported in patent US5464865A, “4-aryl- and 4-arylthio-5-hydroxy-2(5H)-furanones as inhibitors of phospholipase A2” (Ortho Pharmaceutical Corporation, priority 1993, dated 1995).
pIC50: −log10 of the molar value.

Legend:
[1] = target: T1, human platelet phospholipase A2 (Homo sapiens, UniProt P14555); experiment: Inhibition of human platelet phospholipase A2 (14C-oleate E. coli substrate); type: biochemical; details: for pIC50: pH 7.0, 37°, 60 min incubation, read-out: Inhibition of PLA2, IC50; for inhibition at 50 µM: read-out: Inhibition of PLA2, % Inhibition @ 50 μM; for inhibition at 10 µM: @ 10 μM (values marked *), read-out: Inhibition of PLA2, % Inhibition @ *10 μM
T1 construct: a preparation of human platelet phospholipase A2; from tissue; host or cells: human platelets
T1 sequence (P14555 21-144): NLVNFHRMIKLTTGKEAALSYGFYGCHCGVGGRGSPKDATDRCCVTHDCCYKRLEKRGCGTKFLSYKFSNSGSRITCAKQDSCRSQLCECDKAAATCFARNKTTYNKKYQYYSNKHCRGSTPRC
Description: The activity of the compounds of the invention against phospholipase A2 is determined using a preparation of human platelet phospholipase A2 with a specific activity of 180 nmol/min/mg as the enzyme source. Polypropylene 15-ml test tubes are utilized as the reaction vessels. All drug samples are run in duplicate, with "blank" and "control" (no test compound) groups run in triplicate. […] Test compounds are dissolved in DMSO, and diluted to a projected final concentration of either 50 or 10 μM in 550 μl HEPES buffer at pH 7.0. A 1:7 dilution of human platelet PLA2 in HEPES buffer (5 μl) is added to each test tube, followed by gentle vortexing for 3 seconds. The reaction tubes containing drug, buffer, and enzyme are preincubated for 15 min at 37°, followed by the addition of 25 μl of ^14 C-oleate E. coli substrate. Details regarding this substrate may be found in a publication by S. Ghosh and R. Franson, Biochem. Cell. Biol., 70, 43 (1992), and references therein.
The tubes are immediately vortexed at moderate speed for 3 sec, followed by a 60 min incubation at 37° in a shaking water bath. The reaction is stopped by the addition of 3 ml of a 1:2 chloroform-methanol mixture. Additional water (1.5 ml) and chloroform (1.0 ml) are added, followed by vortexing. The lower phase is removed with a polypropylene transfer pipette, and transferred to a 13×100 mm polypropylene test tube. The organic solvent is evaporated with a stream of nitrogen, the residue is redissolved in 30 μl of a 9:1 chloroform-methanol mixture, and the solution is spotted on a channeled polyester-backed silica gel TLC plate, such as those available under the trade name PE SIL G available from Whatman Inc, Clifton, N.J.
The plate is developed with an 80:20:1 mixture of petroleum ether-diethyl ether-acetic acid. […] The plate is scored above the origin, cut along the score with scissors, and the reactant (origin) and product portions of each channel are put into separate scintillation vials. To each vial is added a scintillation cocktail (15 ml), preferably that sold under the trademark ECOLUME by ICN Biomedicals, Irvine Calif. The vials are shaken vigorously for 5 sec, and the radioactive ^14 C in each vial is measured with a scintillation counter, which provides the counts-per-minute (cpm) for each sample. The obtained cpm values are corrected for the "blank" values.
The percentage of phospholipid hydrolyzed is calculated by the formula:
Phospholipid converted=100×cpm products / (cpm products+cpm
The inhibition of phospholipase A2 by the test compounds is expressed as a percent inhibition relative to the control group:
% Inhibition=[…]

[2] = tested on: TPA-induced inflammation in the mouse ear; experiment: Topical anti-inflammatory activity: TPA-induced inflammation (edema) in the mouse ear; type: in vivo, mouse (male CD-1); details: for inhibition in vivo at 100 µg/ear: Mus musculus, @ 100 μg, 5-6 h after TPA; for Inhibition of ear edema, IC50: multiple-dose experiment, dose for 50% inhibition of weight gain
Description: The topical anti-inflammatory activity of the compounds is determined by measuring the degree of inhibition of TPA-induced inflammation in the mouse ear, using essentially the procedure of C. Van Arman, Clin. Pharmacol. Ther., 16, 900 (1974). Male CD-1 mice are used at seven to nine weeks of age. 12-O-tetradecanoylphorbol acetate ([…] in 20 μl of acetone) is dispensed onto the dorsum of the left ear of each mouse, and the right ear is left untreated. Ten mice so treated serve as the control group. […]
After five to six hours, the animals are sacrificed by CO2 inhalation, the ears are removed, and 7 mm circular punch biopsies of are taken from each ear and weighed. The difference in biopsy weight between treated and untreated ears is determined, and the degree of anti-inflammatory activity is expressed in terms of the percent inhibition of ear weight increase relative to the control group. In multiple-dose experiments, varying amounts of the compound to be tested are applied along with the TPA and the results are expressed as the ED50, the dose at which a 50% inhibition of weight gain is observed.

Row | SMILES | pIC50 [1] | inhibition at 50 µM [1] [%] | inhibition in vivo at 100 µg/ear [2] [%] | Inhibition of ear edema, IC50 [2] [µg] | inhibition at 10 µM [1] [%]
1 | CC1=C(C/C=C(\C)COc2ccc(C3=CC(=O)OC3O)cc2)C(C)(C)CCC1 (centres unmarked) [Example 16, (E)-5-Hydroxy-4-(4-(2-methyl-4-(2,6,6-trimethyl-1-cyclohexen-1-yl)-2-butenyloxy)phenyl)-2(5H)-furanone] | 5.05 | 100 | 43 | 106 | 
2 | CC(C)=CCC/C(C)=C/CSc1ccc(C2=CC(=O)OC2O)cc1 (centres unmarked) [Example 23, (E)-5-Hydroxy-4-(4-(3,7-dimethyl-2,6-octadienyl)thio)phenyl-2(5H)furanone] | 5.10 | 78 | 56 |  | 
3 | C=CC(CCCCC)Oc1ccc(C2=CC(=O)OC2O)cc1 (centres unmarked) [Example 37, 5-Hydroxy-4-(4-((1-ethenylhexyl)oxy)phenyl)-2(5H)-furanone] | 4.70 | 93 | 34 |  | 
4 | O=C1C=C(c2cccc(Oc3ccccc3)c2)C(O)O1 (centres unmarked) [Example 43, 5-Hydroxy-4-(3-phenoxyphenyl)-2(5H)-furanone] |  | 30 | 52 |  | 
5 | CCCCCCCCSc1ccc(C2=CC(=O)OC2O)cc1 (centres unmarked) [Example 19, 5-Hydroxy-4-(4-(octylthio)phenyl)-2(5H)furanone] | 5.30 | 98 | 20 |  | 
6 | CC1=C(CC/C=C(\C)COc2ccc(C3=CC(=O)OC3O)cc2)C(C)(C)CCC1 (centres unmarked) [Example 15, (E)-5-Hydroxy-4-(4-(2-methyl-5-(2,6,6-trimethyl-1-cyclohexen-1-yl)-2-pentenyloxy)phenyl)-2(5H)-furanone] |  | 94 | 49 |  | 
7 | CCCCCCC#Cc1ccc(C2=CC(=O)OC2O)cc1 (centres unmarked) [Example 54, 5-Hydroxy-4-(4-(1-octynyl)phenyl)-2(5H)-furanone] | 5.30 | 100 | 9 |  | 
8 | CCCCCC/C=C/c1ccc(C2=CC(=O)OC2O)cc1 (centres unmarked) [Example 35, (E)-5-Hydroxy-4-(4-(1-octenyl)phenyl)-2(5H)-furanone] | 5.30 | 100 | 30 |  | 
9 | C=CCc1ccc(C2=CC(=O)OC2O)cc1O (centres unmarked) [Example 41, 5-Hydroxy-4-(3-hydroxy-4-(2-propenyl)phenyl)-2(5H)-furanone] |  | 0 | 64 |  | 
10 | O=C1C=C(c2ccc(C(=O)/C=C/c3ccc4ccccc4c3)cc2)C(O)O1 (centres unmarked) [Example 30, (E)-5-Hydroxy-4-(4-(3-(2-naphthyl)-1-oxo-2-propenyl)phenyl)-2(5H)-furanone] | 5.15 | 92 | 66 | 80 | 
11 | O=C1C=C(c2ccc(/C=C/c3ccccc3)cc2)C(O)O1 (single isomer, unassigned) [Example 34, (E)-5-Hydroxy-4-(4-(2-phenylethenyl)phenyl)-2(5H)-furanone] | 4.52 | 91 | 33 |  | 
12 | CC1=C(CCC(C)Oc2ccc(C3=CC(=O)OC3O)cc2)C(C)(C)CCC1 (centres unmarked) [Example 39, (E)-5-Hydroxy-4-(4-((1-methyl-3-(2,6,6-trimethyl-1-cyclohexen-1-yl)propyl)oxy)phenyl)-2(5H)-furanone] | 4.70 | 95 | 48 | 94 | 
13 | O=C1C=C(c2ccc(OCCOc3ccc4ccccc4c3)cc2)C(O)O1 (centres unmarked) [Example 12, 5-Hydroxy-4-[4-(2-(2-naphthyloxy)ethoxy)phenyl]-2(5H)furanone] |  | 47 | 45 |  | 
14 | O=C1C=C(c2ccc(C#Cc3ccccc3)cc2)C(O)O1 (centres unmarked) [Example 55, 5-Hydroxy-4-(4-(2-phenylethynyl)phenyl)-2(5H)-furanone] | 4.72 | 67 | 79 | 37 | 
15 | CC1=C(C/C=C(\C)CSc2ccc(C3=CC(=O)OC3O)cc2)C(C)(C)CCC1 (centres unmarked) [Example 18, (E)-5-Hydroxy-4-(4-(2-methyl-4-(2,6,6-trimethyl-1-cyclohexen-1-yl)-2-butenylthio)phenyl)-2(5H)-furanone] |  | 75 | 70 | 28 | 
16 | O=C1C=C(c2ccc(OCc3ccc(C#Cc4ccccc4)cc3)cc2)C(O)O1 (centres unmarked) [Example 44, 5-Hydroxy-4-(4-((4-(2-phenylethynyl)phenyl)methoxy)phenyl)-2(5H)-furanone] |  | 90 | 43 |  | 
17 | CCCCC/C=C/Cc1cc(C2=CC(=O)OC2O)ccc1O (centres unmarked) [Example 38, (E)-5-Hydroxy-4-(4-hydroxy-3-(2-octenyl)phenyl)-2(5H)-furanone] |  | 85 | 78 | 27 | 
18 | C=CCCCCCCCCC(=O)c1ccc(C2=CC(=O)OC2O)cc1 (centres unmarked) [Example 28, 5-Hydroxy-4-(4-(1-oxoundec-10-en-1-yl)phenyl)-2(5H)-furanone] | 5.05 | 86 | 0 |  | 
19 | O=C1C=C(c2ccc(/C=C/CCc3ccccc3)cc2)C(O)O1 (centres unmarked) [Example 36, (E)-5-Hydroxy-4-(4-(4-phenyl-1-butenyl)phenyl)-2(5H)-furanone] | 4.62 | 84 | 37 |  | 
20 | CC1=C(CCCC/C=C(\C)COc2ccc(C3=CC(=O)OC3O)cc2)C(C)(C)CCC1 (centres unmarked) [Example 14, (E)-5-Hydroxy-4-(4-(2-methyl-7-(2,6,6-trimethyl-1-cyclohexen-1-yl)-2-heptenyloxy)phenyl)-2(5H)-furanone] |  | 87 | 4 |  | 
21 | O=C1C=C(c2ccccc2)C(O)O1 (centres unmarked) [Example 42, 5-Hydroxy-4-phenyl-2(5H)-furanone] |  | 9 | 45 |  | 
22 | CCCCCCCCOc1ccc(C2=CC(=O)OC2O)cc1 (centres unmarked) [Example 1, 5-Hydroxy-4-(4-octyloxyphenyl)-2(5H)furanone] | 4.85 | 91 | 56 | 300 | 
23 | CCCCCCCCOc1ccc(SC2=CC(=O)OC2O)cc1 (centres unmarked) [Example 64, 5-Hydroxy-4-(4-(octyloxy)phenylthio)-2(5H)-furanone] | 5.30 | 96 | 48 |  | 
24 | CCCCC/C=C\C/C=C\CCCCCCCCOc1cccc(C2=CC(=O)OC2O)c1 (centres unmarked) [Example 40, (Z,Z)-5-Hydroxy-4-((3-(octadeca-9,12-dienyl)oxy)phenyl)-2(5H)-furanone] | 5.15 | 100 | 80 |  | 
25 | CCCCCCCCOc1ccc(C2=CC(=O)OC2O)cn1 (centres unmarked) [Example 69, 5-Hydroxy-4-(6-octyloxy-3-pyridyl)-2(5H)-furanone] |  | 52 |  |  | 
26 | CC(C)c1cc(C2=CC(=O)OC2O)cc(C(C)C)c1O (centres unmarked) [Example 47, 5-Hydroxy-4-(3,5-bis(1-methylethyl)-4-hydroxyphenyl)-2(5H)-furanone] |  |  |  |  | 2
27 | CCCCCCCCOc1ccc(C2=CC(=O)OC2O)c(Cl)c1 (centres unmarked) [Example 2, 5-Hydroxy-4-(2-chloro-4-octyloxyphenyl)-2(5H)furanone] | 5.12 |  |  |  | 69
